Results on two compounds are retold here after US20080200531A1, “CDKI pathway inhibitors as inhibitors of tumor cell growth” (priority 2006, published 2008).

In test [1] the test system is p21-induced CMV-GFP expression (CDKI pathway). Briefly: CMV-GFP reporter assay for p21-induced transcription (HTS) in HT1080 p21-9 derived reporter cell line. It is filed as cell-based, human. To be noted: for anti-CDKI pathway activity in the reporter assay (induction of CMV-GFP expression in response to p21): libraries screened at 20 μM. The source says: As described in a co-pending patent application PCT/US06/0 1046, we have developed a high-throughput screening (HTS) procedure for compounds inhibiting the CDKI pathway. This procedure utilizes a highly sensitive reporter cell line that was generated by infecting HT1080 p21-9 cells, a derivative of HT1080 fibrosarcoma cells that express p21 from a promoter induced by a physiologically neutral β-galactoside IPTG (isopropyl-β-thio-galactoside) with a lentiviral vector that expresses Green Fluorescent Protein (GFP) from the CDKI-inducible cytomegalovirus (CMV) promoter, followed by subcloning of GFP positive cells and monitoring the induction of GFP expression by IPTG. A cell line showing approximately 10-fold increase in GFP upon the addition of IPTG was used for HTS in a 96-well format.
This reporter line was used to screen two diversified small-molecule libraries developed by ChemBridge Corp., Microformat 04 and DiverSet, each comprising 50,000 compounds. These diversified libraries were rationally chosen by ChemBridge by quantifying pharmacophores in a collection of >500,000 drug-like molecules, using a version of Chem-X software to maximize the pharmacophore diversity. The Microformat 04 collection was designed to complement the chemical space covered by the older DiverSet library. ChemBridge libraries have been successfully used by numerous industrial and academic researchers, in a variety of cell-based and cell-free assays. The ChemBridge libraries were screened at 20 μM concentration, a conventional concentration for cell-based screening of these libraries. 62 of 100,000 ChemBridge compounds were identified by HTS and verified as inhibiting the induction of CMV-GFP expression in response to p21. This low hit rate (0.06%) indicates a high selectivity of our assay.
In this experiment, HT1080 p21-9 cells that express firefly luciferase from a CDKI-responsive promoter of cellular NK4 gene were cultured with IPTG for two days, which is sufficient for near-maximal induction of NK4 (Poole et al., supra).

The test system of test [2] is CDKI-responsive endogenous genes induced by p21. Briefly: Q-PCR of CDKI-responsive endogenous genes, HT1080 cells with IPTG-inducible p21. The class given is cell-based, human. The following applies: 10 μM SNX9, 20 μM SNX9-1; normalized to β-actin. The method, then:
For this purpose, we developed real-time RT-PCR (Q-PCR) assays for measuring RNA levels of eleven CDKI-responsive genes. This assay uses a 96-well TurboCapture RNA extraction kit (Qiagen), in which oligo(dT) is covalently bound to the surface of the wells to allow mRNA isolation from cell lysate and cDNA synthesis in the same wells. 5 units/μl of SuperScript III reverse transcriptase (Invitrogen) was added to the wells for 1 hr for cDNA synthesis at 50° C., and 2 μl of the resulting cDNA was then used for Q-PCR analysis using SYBR Green PCR Master Mix (ABI) with ABI 7900HT Q-PCR machine.
This effect argues that the molecular target of these compounds is not a specific CDKI but rather a common downstream mediator of the transcription-inducing effects of different CDKI.

Test [3] concerns HT1080-derived reporter cell line. Briefly: Growth inhibition and cell death in HT1080-derived reporter cell line. It is filed as cell-based, human. The following applies: cell death detected microscopically by cell detachment. An excerpt:
The combination of p21 and SNX9-class compounds leads to both G1 and G2/M arrest, at the levels expected for the combined effects of p21 and SNX9 (FIG. 6).

In test [4] the test system is human colon (HCT116) cancer xenografts. Briefly: Therapeutic Dose Study in nude mice bearing HCT116 xenografts. To be noted: 70 mg/kg intra-tumorally; for decrease in the tumor size on day 31 relative to the control / mice that died or were sacrificed by day 31: 9 injections over three weeks; for mice that died or were sacrificed by day 31: groups of 10, control 60%; for P, decrease in the tumor size on day 31 relative to the control: 9 injections, paired two-tailed t-test, dead or sacrificed mice taken as 2000 mm^3. The class given is in vivo. Here is the method: Male NCr nude mice, aged approximately 6-8 weeks were used for the study, which was carried out as a service by Taconic Biotechnology, Rensselaer, N.Y. Animals were maintained under virus free barrier conditions with continuous health monitoring. The administration of test materials, all data collection and disposal of study animals was in compliance with all relevant Taconic Biotechnology Standard Operating Procedures as well as The Guide for the Care and Use of Laboratory Animals. Study animals were observed upon arrival and daily throughout the study for overall health, behavior and morbidity. Test animals were subject to body weight measurement to determine dosage volumes of test articles.
With this information, we then carried out the Therapeutic Dose Study of SNX9 and SNX9-1, in nude mice bearing established human colon (HCT116) cancer xenografts. HCT116 was from American Type Culture Collection (ATCC); ATCC information was referenced for the cryopreservation and growing of the cells. The cells were injected at 5×10^6 subcutaneously in the intra-scapular region. The tumor dimensions were measured using vernier calipers. To approximate the subcutaneous tumor size, the calipers were compressed on the skin slightly but not so tightly as to grip the subcutaneous mass. The maximal dimension of the tumor was recorded as L. The dimension perpendicular to L was recorded as W. The formula: Volume=0.5*L*W^2 was used. Eight days following tumor cell injection into the intra-scapular region, when all the tumor inoculi became palpable, groups of 10 mice were treated for 21 days with PBS (control), SNX9 or SNX9-1 (each at 70 mg/kg), dissolved as in the Range Finder Study.
The compounds were injected intra-tumorally three times a week, on alternating days, for a total of 9 injections per animal over three weeks. Mice were sacrificed when tumor size exceeded 2000 mm^3. […] By day 31 (2 days after the end of treatment), 6 of 10 mice in the control group (60%) died or were sacrificed, as compared to 40% of the mice in SNX9-treated group and only 10% of the mice in SNX9-1 treated group. Statistical analysis of differences in the tumor size on day 31 was carried out using paired two-tailed t-test; for this analysis, the tumor volume of all the mice that died or were sacrificed before day 31 was assumed to be 2000 mm^3.

On to `Cc1[nH]c2c(Cl)cccc2c1CCN` [SNX9], for which the “normalized GFP expression without p21 induction” value in test [1] (in the absence of IPTG) was “does not inhibit promoter function when p21 is not induced”. The “normalized GFP expression with p21 induction” value in test [1] (in the presence of IPTG, three days of p21 induction) is reported as “pronounced inhibition of transcription by p21”. Besides, the “anti-CDKI pathway activity in the reporter assay (induction of CMV-GFP expression in response to p21)” value in test [1] is on record as “showed anti-CDKI pathway activity in the reporter assay”. Also, in test [2], the “induction of CDKI-responsive endogenous genes by p21 (ratio of RNA levels with and without IPTG)” value is reported as “partially inhibit the induction of all the tested genes”. Besides, in test [3], the “growth inhibition of the HT1080-derived reporter cell line” value was “associated with the induction of both cell death (as detected microscopically by cell detachment) and cell cycle arrest”. In test [4], the “decrease in the tumor size on day 31 relative to the control” value is “did not reach statistical significance”; the “mice that died or were sacrificed by day 31” value amounted to 40%; the “P, decrease in the tumor size on day 31 relative to the control” value is recorded as < 0.3.

`NCCc1c[nH]c2c(Cl)cc(Cl)cc12` [SNX9-1]: the “anti-CDKI pathway activity in the reporter assay (induction of CMV-GFP expression in response to p21)” value in test [1] is recorded as “showed anti-CDKI pathway activity in the reporter assay”. In test [2], the “induction of CDKI-responsive endogenous genes by p21 (ratio of RNA levels with and without IPTG)” value is listed as “partially inhibit the induction of all the tested genes”. Besides, the “growth inhibition of the HT1080-derived reporter cell line” value in test [3] was “associated with the induction of both cell death (as detected microscopically by cell detachment) and cell cycle arrest”. Moreover, in test [4], the “decrease in the tumor size on day 31 relative to the control” value is given as “highly significant”; the “mice that died or were sacrificed by day 31” value stood at 10%; the “P, decrease in the tumor size on day 31 relative to the control” value is < 0.01.
